Entries after “also recorded” stand apart in the source; their conditions may differ.

What all share (type): cell-based
The test system of experiment [1] is mouse bone marrow derived dendritic cells (mBMDC). In words: IP-10 induction in mBMDC (ELISA), surrogate marker of type I IFN. Conditions: relative to Cmpd 1. On the procedure:
In addition to the production of inflammatory cytokines (IL-6, IL-12, TNFα, etc.) mediated by NFκB activation, TLR4 signaling can result in the production of type I interferons, a feature that is not only important for activation of dendritic cells leading to good adjuvant activity, but would also be important for rapid defense against a variety of pathogens, particularly viruses. […] To determine the relative ability of all compounds to induce the production of type 1 IFN, each was evaluated in mouse bone marrow derived dendritic cells as shown in Tables 1-3.
(§1) BMDC were prepared from C57BL/6 mice as described. See e.g., Wu, C. […] BMDC (10^5 cells per well) were plated in 96-well plates in 200 μL of complete RPMI1640 supplemented with 10% fetal calf serum (FCS; Sigma Aldrich), 100 U/mL penicillin, and 100 μg/mL streptomycin (Invitrogen). […] After 18 h incubation, the cell culture supernatants were collected. LPS (purified LPS, Invivogen, San Diego, Calif.) or MPLA (1 μg/mL synthetic MPLA, Invivogen, San Diego, Calif.) were used as positive controls. […] The AUC was calculated from BMDC dose-response curves using Prism 5 (GraphPad, San Diego). Each cytokine induction curve was first converted to a percent activity curve, and then the AUC of the percent activity curve was calculated. The process of converting to a percent activity curve allowed subtracting background and adjusting for plate-to-plate variation.
In addition, the levels of IP-10, a surrogate marker of type I IFN, in the supernatants were determined by ELISA (R&D Systems, Minneapolis, Minn.).
For orientation: An ELISA detects its analyte on a solid surface through an enzyme-linked reagent.

A further experiment deals with T1, mouse TLR4 (Mus musculus, UniProt Q9JHF9+Q9QUK6).
T1 construct: host or cells: HEK293 (HEK Blue) cells with NFκB/SEAP reporter
T1 sequence (Q9QUK6 26-835): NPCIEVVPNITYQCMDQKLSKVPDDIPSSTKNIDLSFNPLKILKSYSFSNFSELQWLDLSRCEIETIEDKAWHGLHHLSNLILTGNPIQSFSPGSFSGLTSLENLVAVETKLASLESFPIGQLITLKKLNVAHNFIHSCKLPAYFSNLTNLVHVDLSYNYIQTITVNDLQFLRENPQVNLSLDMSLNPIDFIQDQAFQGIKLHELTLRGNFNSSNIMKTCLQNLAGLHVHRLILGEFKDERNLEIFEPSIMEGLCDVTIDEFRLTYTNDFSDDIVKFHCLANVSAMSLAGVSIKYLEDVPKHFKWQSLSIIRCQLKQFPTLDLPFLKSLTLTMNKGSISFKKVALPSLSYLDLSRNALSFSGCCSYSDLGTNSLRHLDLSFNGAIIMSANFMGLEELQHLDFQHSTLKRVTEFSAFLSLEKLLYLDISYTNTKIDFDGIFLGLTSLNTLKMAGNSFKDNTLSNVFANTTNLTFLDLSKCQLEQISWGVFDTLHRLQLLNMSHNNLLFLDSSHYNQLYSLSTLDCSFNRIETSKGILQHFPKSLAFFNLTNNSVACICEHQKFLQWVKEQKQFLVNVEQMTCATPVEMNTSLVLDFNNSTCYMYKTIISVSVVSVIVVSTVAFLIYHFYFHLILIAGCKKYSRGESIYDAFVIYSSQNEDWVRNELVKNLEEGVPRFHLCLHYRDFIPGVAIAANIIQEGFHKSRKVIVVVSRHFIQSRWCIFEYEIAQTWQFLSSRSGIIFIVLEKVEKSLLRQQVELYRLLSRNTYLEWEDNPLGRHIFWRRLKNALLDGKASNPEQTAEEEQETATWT
T1 sequence (Q9JHF9 19-160): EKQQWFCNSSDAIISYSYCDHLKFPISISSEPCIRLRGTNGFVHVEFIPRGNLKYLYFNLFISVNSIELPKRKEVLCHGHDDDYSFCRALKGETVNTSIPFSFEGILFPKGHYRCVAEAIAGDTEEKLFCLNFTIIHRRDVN
In words: Murine TLR4 HEK Blue NFκB/SEAP reporter assay. Conditions: for mouse TLR4, area under curve (AUC) values normalized to Cmpd 1: mTLR4 HEK transfectoma, 312 nM to 10 μM, Cmpd 1 set at 100. On the procedure:
(§2) The above assays were utilized to compare the derivatives of the lead pyrimidoindole for their ability to activate mouse and human TLR4. […] Each cytokine induction curve was first converted to a percent activity curve, and then the AUC of the percent activity curve was calculated. The process of converting to a percent activity curve allowed subtracting background and adjusting for plate-to-plate variation.
(§3) The culture supernatants were harvested after a 20-24 h incubation period. SEAP activity in the supernatants was determined by a colorimetric assay, using either the SEAPorter Assay Kit (Imgenex), with absorbance read at 405 nm, or QuantiBlue (Invivogen), with absorbance read at 630 nm.
(In general: A reporter such as luciferase makes a cellular process visible.)

For the next experiment, the target named is T2, human TLR4 (Homo sapiens, UniProt O00206+Q9Y6Y9).
T2 construct: host or cells: HEK293 (HEK Blue) cells with NFκB/SEAP reporter
Kind of experiment: Human TLR4 HEK Blue NFκB/SEAP reporter assay. The following applies: for human TLR4, values normalized to Cmpd 1: hTLR4 HEK293 transfectoma, all compounds tested at 10 μM, Cmpd 1 set at 100. How it is done:
as §2, §3

The subject of experiment [2] is mouse bone marrow derived dendritic cells (mBMDC). In words: IL-6 induction in mouse bone marrow derived dendritic cells (ELISA). The following applies: relative to Cmpd 1 / within series. How it is done: as §2, §1

T2 sequence (O00206 24-839): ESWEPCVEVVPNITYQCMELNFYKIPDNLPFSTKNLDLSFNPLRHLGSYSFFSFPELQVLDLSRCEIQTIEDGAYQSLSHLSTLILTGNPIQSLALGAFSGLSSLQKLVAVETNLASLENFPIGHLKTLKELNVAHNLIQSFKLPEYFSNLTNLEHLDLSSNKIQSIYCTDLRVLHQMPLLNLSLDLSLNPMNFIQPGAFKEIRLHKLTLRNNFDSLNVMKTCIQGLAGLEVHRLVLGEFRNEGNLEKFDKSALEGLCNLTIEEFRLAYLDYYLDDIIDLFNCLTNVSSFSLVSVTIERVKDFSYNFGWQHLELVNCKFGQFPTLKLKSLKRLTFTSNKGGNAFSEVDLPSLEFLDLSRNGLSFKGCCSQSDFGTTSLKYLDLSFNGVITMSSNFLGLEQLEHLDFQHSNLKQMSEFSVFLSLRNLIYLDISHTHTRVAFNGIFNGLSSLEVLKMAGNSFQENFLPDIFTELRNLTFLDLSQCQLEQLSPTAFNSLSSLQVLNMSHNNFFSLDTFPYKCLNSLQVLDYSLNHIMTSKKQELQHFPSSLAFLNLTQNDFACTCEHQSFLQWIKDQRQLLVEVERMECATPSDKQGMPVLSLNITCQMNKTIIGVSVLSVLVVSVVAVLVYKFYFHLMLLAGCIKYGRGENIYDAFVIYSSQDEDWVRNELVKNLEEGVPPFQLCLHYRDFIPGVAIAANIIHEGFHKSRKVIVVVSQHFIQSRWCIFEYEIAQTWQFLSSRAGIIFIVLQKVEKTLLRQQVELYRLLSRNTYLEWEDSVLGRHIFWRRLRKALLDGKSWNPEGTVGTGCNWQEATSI
T2 sequence (Q9Y6Y9 19-160): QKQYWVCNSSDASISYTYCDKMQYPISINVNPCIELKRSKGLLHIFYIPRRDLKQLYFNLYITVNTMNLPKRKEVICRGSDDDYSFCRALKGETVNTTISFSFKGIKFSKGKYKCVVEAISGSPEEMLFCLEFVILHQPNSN

Take `O=C(CSc1nc2c([nH]c3ccccc32)c(=O)n1-c1ccccc1)NC1CCCCCC1` [Compound 9, N-Cycloheptyl-2-((4-oxo-3-phenyl-4,5-dihydro-3H-pyrimido[5,4-b]indol-2-yl)thio)acetamide]: the “IP-10 production in mBMDC (in words)” value in experiment [1] is listed as “high IP-10 production”. Moreover, the “mouse TLR4, area under curve (AUC) values normalized to Cmpd 1” value at mouse TLR4 was determined as 99. The “human TLR4, values normalized to Cmpd 1” value on human TLR4 was 100. The “IL-6 activity in mBMDC (in words)” value in experiment [2] is reported as “the most active; also recorded: high IL-6”.
Taken in the same sequence, the figures for `O=C(CSc1nc2c([nH]c3ccccc32)c(=O)n1-c1ccccc1)NC1CCCCCCC1` [Compound 10, N-cyclooctyl-2-((4-oxo-3-phenyl-4,5-dihydro-3H-pyrimido[5,4-b]indol-2-yl)thio)acetamide] were “high IP-10 production”, 95, 64 and “the most active; also recorded: high IL-6”.
Taken in the same sequence, the figures for `O=C(CSc1nc2c([nH]c3ccccc32)c(=O)n1-c1ccccc1)NC1CCC1` [Compound 12, N-cyclobutyl-2-((4-oxo-3-phenyl-4,5-dihydro-3H-pyrimido[5,4-b]indol-2-yl)thio)acetamide] were “nearly equivalent induction of IP-10”, 18, 32 and “diminished IL-6 release”.
In the case of `O=C(CSc1nc2c([nH]c3ccccc32)c(=O)n1-c1ccc2ccccc2c1)NC1CCCCC1` [Compound 39, N-cyclohexyl-2-((3-(naphthalen-2-yl)-4-oxo-4,5-dihydro-3H-pyrimido[5,4-b]indol-2-yl)thio)acetamide], the “mouse TLR4, area under curve (AUC) values normalized to Cmpd 1” value on mouse TLR4 is given as 6. On human TLR4, the “human TLR4, values normalized to Cmpd 1” value stood at 3. Moreover, the “IL-6 activity in mBMDC (in words)” value in experiment [2] is “total loss of activity”.
For the compound `O=C(CSc1nc2c([nH]c3ccccc32)c(=O)n1CCc1ccccc1)NC1CCCCC1` [Compound 40, N-cyclohexyl-2-((4-oxo-3-phenethyl-4,5-dihydro-3H-pyrimido[5,4-b]indol-2-yl)thio)acetamide], the “mouse TLR4, area under curve (AUC) values normalized to Cmpd 1” value at mouse TLR4 is 1. In addition, the “human TLR4, values normalized to Cmpd 1” value at human TLR4 is 1. Besides, in experiment [2], the “IL-6 activity in mBMDC (in words)” value is given as “total loss of activity”.
For `O=C(CSc1nc2c([nH]c3ccccc32)c(=O)n1C1CCCCC1)NC1CCCC1` [Compound 41, 2-((3-Cyclohexyl-4-oxo-4,5-dihydro-3H-pyrimido[5,4-b]indol-2-yl)thio)-N-cyclopentylacetamide], the “mouse TLR4, area under curve (AUC) values normalized to Cmpd 1” value at mouse TLR4 came out at 19. On human TLR4, the “human TLR4, values normalized to Cmpd 1” value was 33. Also, the “IL-6 activity in mBMDC (in words)” value in experiment [2] is “partial loss of activity”.
The like results for `CN(C(=O)CSc1nc2c3ccccc3n(C)c2c(=O)n1-c1ccccc1)C1CCCCC1` [Compound 43, N-cyclohexyl-N-methyl-2-((5-methyl-4-oxo-3-phenyl-4,5-dihydro-3H-pyrimido[5,4-b]indol-2-yl)thio)acetamide] were, in that order, 1, under 1 and “total loss of IL-6 activity”.
Consider `COC(=O)CCCn1c2ccccc2c2nc(SCC(=O)NC3CCCCC3)n(-c3ccccc3)c(=O)c21` [Compound 44, Methyl 4-(2-((2-(cyclohexylamino)-2-oxoethyl)thio)-4-oxo-3-phenyl-3H-pyrimido[5,4-b]indol-5(4H)-yl)butanoate], for which, on mouse TLR4, the “mouse TLR4 reporter cell activation (in words)” value is recorded as “good activity” and the “mouse TLR4, area under curve (AUC) values normalized to Cmpd 1” value is reported as 9. For the same compound, on human TLR4, the “human TLR4 reporter cell activation (in words)” value is “good activity” and the “human TLR4, values normalized to Cmpd 1” value was determined as 19. Also, the “IL-6 activity in mBMDC (in words)” value in experiment [2] is “very little IL-6”.

For the origin of these results see patent US9505768B2, “Compositions and methods for modulating TLR4” (The Regents of the University of California, priority 2012, dated 2016).
